Assay results: patent publication US5962502A, “Polyamidic acid derivatives with antigastrin activity, a method for their preparation, and their pharmaceutical use” (priority 1993, dated 1999)
Several values for one entry are separate records, joined by “and”; a condition that tells them apart may be missing. Equal entries are not always repeated.

What was measured:
[1] = test system: acid secretion induced by pentagastrin; test: Acid secretion induced by pentagastrin in the anaesthetized rat; format: in vivo; conditions: for ED50: iv, 1 h, I.V. bolus, pentagastrin 30 mcg/kg/h, read-out: Activity (ID50), inhibition of the acid secretion induced by pentagastrin
Protocol: The activity of the compounds of the invention against gastric secretion performed by means of a mechanism with an antigastrin effect, was examined in vivo in anaesthetized rats with the use of male animals weighing about 200 g. Gastric secretion was stimulated with pentagastrin and Lai's method [Gut 5, (1964), 327-341 ] was used, with slight modification.
After tracheotomy, the oesophagus and duodenum were cannulated. A tepid solution (37° C.) of 0.25 mM NaOH was perfused and was passed through the stomach by means of a peristaltic pump at a constant flow-rate of 1 ml/minute. After stabilization for 20 minutes, the stimulant, dissolved in a physiological solution, was perfused for 120 minutes at a dose of 30 mcg/kg/h, in a volume of 0.95 ml/hour. After perfusion for 60 minutes (the basal stimulation), the product under test was administered intravenously (I.V.) as a bolus and perfusion of the stimulant was continued for a further 60 minutes. The acid secretion was recorded continuously as a function of time.
The activity of the product was evaluated as the percentage reduction of secreted acidity after the administration of the product, in comparison with the basal acidity measured during the first 60 minutes of collection in the presence of pentagastrin alone.
The antagonistic compounds tested were administered in various doses so that an ID50, that is, the dose (in mg/kg I.V.) which could inhibit the effect of pentagastrin by 50%, could be calculated.

[2] = biological target: T1, gastrin receptors or type-B cholecystokinin (CCK-B) receptors (Oryctolagus cuniculus, UniProt P46627); test: Inhibition of the gastrin-induced increase of cytosolic calcium in rabbit gastric mucous-membrane cells (Fura 2); format: cell-based; conditions: for Ratio IC50 Binding cortex / IC50 (gastric mucous cells): binding values taken from Table 3; for IC50, inhibition of the increase of cytosolic calcium: rabbit gastric mucous cells enriched in parietal cells, gastrin 5×10^-8
T1 construct: Rabbit gastric mucous-membrane cells were prepared by conventional techniques; endogenous in cells; host or cells: freshly isolated rabbit gastric mucosal cells, enriched by elutriation to about 70% parietal cells
T1 sequence (P46627 1-452): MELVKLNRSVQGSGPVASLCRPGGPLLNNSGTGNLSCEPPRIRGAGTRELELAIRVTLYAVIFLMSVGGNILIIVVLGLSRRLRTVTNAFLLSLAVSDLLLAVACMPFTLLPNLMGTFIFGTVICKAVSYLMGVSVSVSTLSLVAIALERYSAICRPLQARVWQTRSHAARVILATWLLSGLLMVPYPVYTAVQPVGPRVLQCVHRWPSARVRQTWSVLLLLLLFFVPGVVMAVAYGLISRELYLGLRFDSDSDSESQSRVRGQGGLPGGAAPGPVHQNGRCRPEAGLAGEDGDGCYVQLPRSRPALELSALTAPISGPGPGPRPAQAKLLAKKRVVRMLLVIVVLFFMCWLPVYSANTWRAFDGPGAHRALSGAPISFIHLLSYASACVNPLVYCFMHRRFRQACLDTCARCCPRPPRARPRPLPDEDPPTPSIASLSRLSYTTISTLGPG
Text: The parietal cells of the gastric mucous membrane are responsible for the secretion of HCl. They have specific membrane receptors which can be activated by gastrin and which have been defined as gastrin receptors or type-B cholecystokinin (CCK-B) receptors. Since it has been observed that the activation of the CCK-B receptors by gastrin leads to an increase in the cytosolic levels of calcium ions, a technique involving the measurement of the increase in intracellular calcium induced by gastrin in the presence and in the absence of the compounds of the invention was used as an index of the antigastrin activity of the compounds. Rabbit gastric mucous-membrane cells were prepared by conventional techniques with the use of collagenase and pronase as digestive enzymes. The cellular preparation obtained by the enzymatic digestion was composed of parietal cells, zymogen cells and mucous-membrane cells. […] The cells were then washed and resuspended in a saline solution buffered with HEPES containing, in mM: […] Each measurement was carried out on cells in suspension (0.8×10^6 /ml) at a thermostatically-controlled temperature of 37° C. and with constant magnetic stirring. The fluorescence was recorded with the use of a spectrofluorometer. The operative wavelengths were 340/380 nm for excitation and 505 nm for emission. […] Biol. Chem. 260 (1985), 3440]. […] The results thus obtained for some compounds of the invention are given in Table 4, which also gives an index derived from the ratio between the peripheral antigastrin activity just described and the displacement activity found in the test on binding to the guinea-pig cortex receptors described above.

[3] = biological target: T2, CCK-A (Cavia porcellus, UniProt Q63931); test: Anti-CCK-A activity on guinea-pig gall bladder stimulated in vitro by CCK-8
T2 construct: A longitudinal strip of guinea-pig gall-bladder was put in a bath for isolated organs; from tissue; host or cells: guinea-pig gall bladder longitudinal strip
T2 sequence (Q63931 1-430): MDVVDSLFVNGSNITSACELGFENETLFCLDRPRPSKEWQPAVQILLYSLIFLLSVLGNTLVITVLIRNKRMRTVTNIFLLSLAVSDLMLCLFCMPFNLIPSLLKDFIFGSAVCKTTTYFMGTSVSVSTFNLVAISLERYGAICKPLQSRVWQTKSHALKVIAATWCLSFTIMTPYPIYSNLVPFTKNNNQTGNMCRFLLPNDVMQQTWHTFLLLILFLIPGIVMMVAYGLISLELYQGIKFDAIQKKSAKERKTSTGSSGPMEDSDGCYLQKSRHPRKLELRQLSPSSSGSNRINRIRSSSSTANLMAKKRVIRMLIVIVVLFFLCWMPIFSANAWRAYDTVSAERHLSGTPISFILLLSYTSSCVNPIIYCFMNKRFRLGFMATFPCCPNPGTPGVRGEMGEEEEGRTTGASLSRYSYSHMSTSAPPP
Protocol: The experimental model used was guinea-pig gall bladder stimulated in vitro by CCK-8, with the use of lorglumide as the reference standard. A longitudinal strip of guinea-pig gall-bladder was put in a bath for isolated organs in the presence of Krebs buffer at a temperature of 32° C., with continuous oxygenation with an oxygen-CO2 mixture (95-[…]). The isometric contractions were detected by means of a force transducer and recorded.

[4] = biological target: T3, central CCK-B receptor (Cavia porcellus, UniProt H0VZC5); test: Inhibition of the binding of [3-H][N-methyl-N-leucine]CCK-8 to guinea-pig cortical membranes; conditions: guinea-pig cortical membranes; for IC50: 150 minutes at 25° C.
T3 construct: Cerebral cortices of male white guinea-pigs were thus used; from tissue; host or cells: cerebral cortex membranes of male white guinea-pigs
T3 sequence (H0VZC5 1-426): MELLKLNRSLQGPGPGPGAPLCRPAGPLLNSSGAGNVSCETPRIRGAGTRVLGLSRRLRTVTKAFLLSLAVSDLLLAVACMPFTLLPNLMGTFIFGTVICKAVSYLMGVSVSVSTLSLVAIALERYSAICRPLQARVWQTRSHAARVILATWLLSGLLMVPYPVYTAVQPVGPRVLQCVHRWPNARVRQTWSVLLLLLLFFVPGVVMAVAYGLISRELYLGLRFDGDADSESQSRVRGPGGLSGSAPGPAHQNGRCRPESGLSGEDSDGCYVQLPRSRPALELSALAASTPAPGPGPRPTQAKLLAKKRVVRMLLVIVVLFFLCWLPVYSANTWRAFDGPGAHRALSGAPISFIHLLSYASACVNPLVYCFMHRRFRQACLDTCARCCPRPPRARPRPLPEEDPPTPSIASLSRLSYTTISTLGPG
Protocol: The ability of the compounds of the invention to interact with the central CCK-B receptor was evaluated with the use of non-sulphated [3-H] […] 225 (3) (1990), 1278-1286].
Cerebral cortices of male white guinea-pigs were thus used, according to the method mentioned above, so as to obtain a membrane content corresponding to about 300 mcg of proteins/ml. The membranes were incubated together with the radioactive tracer and the compounds under test for 150 minutes at 25° C. After the supernatant had been discarded, the radioactivity associated with the pellet was determined with a liquid scintillator. The specific binding was determined as the difference between the binding in the absence and in the presence of 5.10^-6 M CCK-8.

SMILES	ED50 [1]	Ratio IC50 Binding cortex / IC50 (gastric mucous cells) [2]	CCK-B-antagonistic activity IC50 (II) ([2]; data taken from Table 4 (rabbit gastric mucous cells), reprinted in Table 6)	IC50, inhibition of the increase of cytosolic calcium [2]	Ratio I/II (CCK-A IC50 / CCK-B IC50) ([3]; gall bladder IC50 over gastric mucous cells IC50)	IC50 ([3]; guinea-pig gall bladder in vitro, CCK-8 10 ng/ml, read-out: CCK-A-antagonistic activity IC50 (I))	inhibition of the binding of [N-methyl-N-leucine]CCK-8, result in words [4]	IC50 [4]	antigastrin activity relative to the diastereoisomer at the carbon atom (**) ([1]; pentagastrin-induced acid secretion)
O=C(O)CC[C@@H](NC(=O)c1cc(Cl)cc(Cl)c1)C(=O)N1CCC2(CCCC2)CC1 [CR 2194, (R)-5-(8-azaspiro[4.5]decan-8-yl)-4-(3,5-dichloro-benzoylamino)-5-oxopentanoic acid, reference compound]	11 mg/kg and 24.9 µmol/kg	6.3	380 nM	380 nM	35.5	13500 nM	–	–	–
CN(C(=O)CC[C@@H](NC(=O)c1cc(Cl)cc(Cl)c1)C(=O)N1CCC2(CCCC2)CC1)[C@H](Cc1ccccc1)C(=O)O [Compound 12]	13.6 mg/kg and 24.2 µmol/kg	1.7	–	60 nM	–	–	potent inhibitors	100 nM	–
O=C(O)C[C@H](Cc1ccccc1)NC(=O)CC[C@@H](NC(=O)c1cc(Cl)cc(Cl)c1)C(=O)N1CCC2(CCCC2)CC1 [Compound 14]	9.7 mg/kg and 16.1 µmol/kg	17.0	–	20 nM	–	–	–	340 nM	about 1.5 times
